# Like-named read-outs stand apart in the source and are kept apart here.
# How the values were obtained:
# [1] = molecular target: T1, progesterone receptor (PR) (Homo sapiens, UniProt P06401); assay: PR-mediated induction of transcription by R5020 in T47D K5pLuc cells (luciferase reporter and endogenous alkaline phosphatase); assay type: cell-based; settings: for inhibition at 4 µM / inhibition at 8 µM: T47D; for inhibition at 4 µM / inhibition at 8 µM / % Inhibition of PR Induction: R5020 1.0 nM
# T1 sequence (P06401 679-933 limits assumed): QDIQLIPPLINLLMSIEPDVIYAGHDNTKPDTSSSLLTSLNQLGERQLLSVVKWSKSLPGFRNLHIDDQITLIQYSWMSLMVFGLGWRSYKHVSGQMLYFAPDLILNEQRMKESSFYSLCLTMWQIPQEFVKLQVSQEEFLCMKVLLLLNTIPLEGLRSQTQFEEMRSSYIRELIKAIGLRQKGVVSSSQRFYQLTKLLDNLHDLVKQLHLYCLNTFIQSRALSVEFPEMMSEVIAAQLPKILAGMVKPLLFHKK
# Source text: (§1) The engineered T47D breast cancer cell lines employed for the assessment of flavonoid activity on glucocorticoid receptor (GR) and progesterone receptor (PR) signaling permitted the facile quantitation transcription of both an endogenous gene and a stably integrated reporter gene. […] The T47D K5pLuc cell line responds to progestins via induction of a stably integrated cytokeratin 5-luciferase reporter gene. […] For assessment of the effect of the test compounds on androgen receptor (AR) signaling, we used the HeLa13 cell line engineered to stably express human AR and a PSA-luciferase reporter gene containing a 4× multimerized PSA upstream enhancer ARE1 linked to the E4 TATA box and luciferase gene.
# Experiments testing the effect of flavonoids on progesterone receptor-mediated transcription employed T47D K5pluc cells. The protocol was the same as that for T47D (A1-2) cells except the medium was Dulbecco’s Modified Eagle’s Medium supplemented with 10% FBS, insulin (10 nM), puromycin 200 ng/mL, nonessential amino acids, penicillin (100 U/mL), and streptomycin (100 μg/mL). When treated with hormone, the synthetic progestin, R5020, was used at 1.0 nM. Hormone treatment was for 20 h at which time cells were harvested for assay of alkaline phosphatase and luciferase.
# (§2) For all cell lines, cell harvesting and the luminescence assay for alkaline phosphatase and/or luciferase were performed as previously described in detail. Each condition was performed in quadruplicate. […] Percent inhibition is 100 minus the percent induction.
# [2] = molecular target: T2, human AR (Homo sapiens, UniProt P10275); assay: AR-mediated induction of PSA-luciferase reporter by R1881 in HeLa13 cells; assay type: cell-based; settings: for inhibition at 1 µM / inhibition at 4 µM: read-out: % Inhibition of AR-Mediated Gene Induction
# T2 construct: expressed in transfected cells; host or cells: HeLa13 (HeLa 13)
# T2 sequence (P10275 1-920): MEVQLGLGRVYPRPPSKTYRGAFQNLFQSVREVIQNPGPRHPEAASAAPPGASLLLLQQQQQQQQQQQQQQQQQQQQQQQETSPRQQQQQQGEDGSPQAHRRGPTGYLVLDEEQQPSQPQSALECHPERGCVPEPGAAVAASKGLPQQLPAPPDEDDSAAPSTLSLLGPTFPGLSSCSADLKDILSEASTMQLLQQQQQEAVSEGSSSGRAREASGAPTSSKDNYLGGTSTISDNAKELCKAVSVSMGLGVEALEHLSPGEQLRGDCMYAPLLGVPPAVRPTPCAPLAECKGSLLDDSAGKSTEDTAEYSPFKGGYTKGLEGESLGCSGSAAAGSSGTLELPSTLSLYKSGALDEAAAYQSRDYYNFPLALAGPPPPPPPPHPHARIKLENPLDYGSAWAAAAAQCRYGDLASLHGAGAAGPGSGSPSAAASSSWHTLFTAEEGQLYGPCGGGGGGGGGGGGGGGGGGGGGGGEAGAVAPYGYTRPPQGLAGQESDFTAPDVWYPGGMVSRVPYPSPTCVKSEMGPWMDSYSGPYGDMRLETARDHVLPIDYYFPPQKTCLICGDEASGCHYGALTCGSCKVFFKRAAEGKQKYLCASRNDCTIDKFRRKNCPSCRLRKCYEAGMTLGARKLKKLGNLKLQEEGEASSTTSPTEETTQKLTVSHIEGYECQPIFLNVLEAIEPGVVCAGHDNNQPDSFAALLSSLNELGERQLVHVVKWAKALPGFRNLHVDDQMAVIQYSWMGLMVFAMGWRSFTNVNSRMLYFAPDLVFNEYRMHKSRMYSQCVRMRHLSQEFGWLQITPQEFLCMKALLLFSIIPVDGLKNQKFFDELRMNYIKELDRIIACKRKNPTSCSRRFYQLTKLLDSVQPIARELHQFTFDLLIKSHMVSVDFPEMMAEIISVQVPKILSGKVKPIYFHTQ
# Source text: as §1
# Experiments testing the effect of flavonoid on androgen receptor-mediated transcription employed HeLa 13 cells maintained in MEM medium supplemented with 10% FBS, 0.5 mg/mL G418, 0.05 mg/mL Hygromycin B, […], and streptomycin (100 μg/mL). For reporter gene experiments, cells were replated at a 1:5 dilution in MEM medium with 5% charcoal-stripped FBS and the antibiotics mentioned above. The medium was changed the next day. After 48 h, the cells were washed with PBSE, detached with phenol red-free trypsin, pelleted, resuspended and plated in 96 well plates as above. Hormone and flavonoid treatments were performed as described above with the HeLa 13 medium and charcoal-stripped FBS. When treated with hormone, the synthetic androgen, R1881, was used at 1.0 nM. Hormone treatment was for 20 h at which time cells were harvested for assay of luciferase.
# as §2
# [3] = 4 µM, AP (alkaline phosphatase)
# [4] = 8 µM, AP (alkaline phosphatase)
"inhibition at 4 µM [1, 3] [%]","inhibition at 4 µM ([1]; 4 µM, LUC (luciferase)) [%]","inhibition at 8 µM [1, 4] [%]","inhibition at 8 µM ([1]; 8 µM, LUC (luciferase)) [%]","inhibition at 1 µM ([2]; 1 µM, R1881 1.0 nM) [%]","inhibition at 4 µM ([2]; 4 µM, R1881 1.0 nM) [%]",SMILES,further results
82,76,95,95,-20,67,"O=c1cc(-c2ccc(O)c(O)c2)oc2cc(O)cc(O)c12 [5,7,3′,4′-tetrahydroxyflavone]","inhibition of PR-mediated gene expression of both reporter genes ([1]; 4.0 micromolar): at least 70%; inhibition of PR-mediated gene expression of both reporter genes ([1]; 8.0 micromolar): ≥ 90%; IC50 ([1]; R5020, alkaline phosphatase and luciferase, read-out: IC50, inhibition of PR-mediated induction of gene expression): 1 to 2 µM"
78,71,89,90,-13,46,"O=c1cc(-c2ccccc2)oc2cc(O)cc(O)c12 [5,7-dihydroxyflavone]",inhibition of PR-mediated gene expression of both reporter genes ([1]; 4.0 micromolar): at least 70%; inhibition of PR-mediated gene expression of both reporter genes ([1]; 8.0 micromolar): ≥ 90%
10,-66,40,-107,-12,55,O=c1cc(-c2ccccc2)oc2ccccc12 [flavone],
41,-13,38,-126,,24,"O=c1c(-c2ccc(O)cc2)coc2cc(O)ccc12 [7,4′-dihydroxyisoflavone]",
39,-147,37,-103,43,54,"O=c1cc(-c2ccc(O)cc2)oc2ccc(O)cc12 [6,4′-dihydroxyflavone]",
43,52,90,98,-17,9,"O=C1CC(c2ccc(O)cc2)Oc2cc(O)cc(O)c21 (stereo not shown) [5,7,4′-trihydroxyflavanone]",
13,-11,39,-10,-6,11,"O=c1cc(-c2ccc(O)c(O)c2)oc2cc(O)ccc12 [7,3′,4′-trihydroxyflavone]",
49,-96,32,,55,22,"O=c1c(-c2ccc(O)cc2)coc2cc(O)cc(O)c12 [5,7,4′-trihydroxyisoflavone]",

# Further lines, the compound ahead of its results:
SMILES,"inhibition at 4 µM [1, 3] [%]","inhibition at 4 µM ([1]; 4 µM, LUC (luciferase)) [%]","inhibition at 8 µM [1, 4] [%]","inhibition at 8 µM ([1]; 8 µM, LUC (luciferase)) [%]","inhibition at 1 µM ([2]; 1 µM, R1881 1.0 nM) [%]","inhibition at 4 µM ([2]; 4 µM, R1881 1.0 nM) [%]",further results
"O=c1cc(-c2ccc(O)cc2)oc2cc(O)ccc12 [7,4′-dihydroxyflavone]",41,-16,55,-49,,,inhibition at 1 µM [2]: -18%; inhibition at 4 µM [2]: -20%
"COc1ccc([C@@H]2CC(=O)c3c(O)cc(O)cc3O2)cc1O [5,7,3′-triOH, 4′methoxyflavanone]",8,-6,28,16,,,inhibition at 1 µM [2]: -28%; inhibition at 4 µM [2]: -30%
"O=c1cc(-c2ccc(O)c(O)c2)oc2cccc(O)c12 [5,3′,4′-trihydroxyflavone]",46,-7,65,55,,,inhibition at 1 µM [2]: 29%; inhibition at 4 µM [2]: 91%
"O=c1cc(-c2ccc(O)cc2)oc2cccc(O)c12 [5,4′-dihydroxyflavone]",23,-12,74,80,77,97,"IC50 ([2]; R1881, read-out: IC50, AR antagonism): ~0.5 µM"
"O=c1cc(-c2ccc(O)c(O)c2)oc2ccccc12 [3′,4′-dihydroxyflavone]",8,-64,27,-14,40,75,
"O=c1cc(-c2cc(O)c(O)c(O)c2)oc2cc(O)cc(O)c12 [5,7,3′4′,5′-pentahydroxyflavone]",,,,,,,"% Inhibition of PR Induction [1, 3]: 12%; % Inhibition of PR Induction ([1]; 4 µM, LUC (luciferase)): −97%; % Inhibition of PR Induction [1, 4]: 45%; % Inhibition of PR Induction ([1]; 8 µM, LUC (luciferase)): −19%; % Inhibition of AR-Mediated Gene Induction ([2]; 1 µM, R1881 1.0 nM): −8%; % Inhibition of AR-Mediated Gene Induction ([2]; 4 µM, R1881 1.0 nM): 24%"
"O=C1CC(c2ccc(O)c(O)c2)Oc2cc(O)cc(O)c21 (stereo not shown) [5,7,3′,4′-tetrahydroxyflavanone]",8,3,40,23,,,inhibition at 1 µM [2]: 13%; inhibition at 4 µM [2]: 24%
O=c1cc(-c2ccc(O)cc2)oc2ccccc12 [4′-hydroxyflavone],31,-62,49,-81,29,65,

# Reference: article PMC11940309, “Endocrine-Disrupting Activities of Flavones on Steroid Receptors: Structural Requirements and Synthesis of Novel Flavone with Improved Estrogenic Activity” (Biomedicines, 2025)
